Measured values taken from PubChem BioAssay AID248 (DTP/NCI, 2004).
Where “and” joins values, the source holds several entries; their conditions need not be identical. Equal values may be shown once. Inconclusive results and toxic doses are left out. Rule as the data show it: active = T/C of 150% or more; inactive = T/C below 125%.

Test system: L1210 leukemia ip in BDF1 mice, survival T/C
Assay: NCI In Vivo Anticancer Drug Screen. Data for tumor model L1210 Leukemia (intraperitoneal) in B6D2F1 (BDF1) mice
Details: endpoint: mean survival time, higher = longer survival
Outline: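 Antitumor effect is assessed in tumor-bearing animals. Survival in the compound arm is compared with a vehicle-dosed control arm and expressed as their quotient.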

[1] = dose: 100.0 mg/kg/injection, schedule: Q04DX002 (ip), vehicle: saline with Tween-80
[2] = dose: 200.0 mg/kg/injection, schedule: Q04DX002 (ip), vehicle: saline with Tween-80
[3] = dose: 200.0 mg/kg/injection, schedule: Q01DX009 (ip), vehicle: saline with Tween-80
[4] = dose: 100.0 mg/kg/injection, schedule: Q01DX009 (ip), vehicle: saline with Tween-80
[5] = dose: 100.0 mg/kg/injection, schedule: Q01DX009 (ip), vehicle: other
[6] = dose: 200.0 mg/kg/injection, schedule: Q01DX009 (ip), vehicle: other
[7] = dose: 400.0 mg/kg/injection, schedule: Q01DX009 (ip), vehicle: other
[8] = dose: 100.0 mg/kg/injection, schedule: Q04DX003 (ip), vehicle: saline
[9] = dose: 200.0 mg/kg/injection, schedule: Q04DX003 (ip), vehicle: saline
[10] = dose: 400.0 mg/kg/injection, schedule: Q04DX003 (ip), vehicle: saline

Measured: T/C

CC(=O)Oc1cc2c[n+](C)c3c4cc(OC(C)=O)c(OC(C)=O)cc4ccc3c2cc1OC(C)=O
inactive: dose: 20.0 mg/kg/injection, schedule: Q01DX009 (ip), vehicle: saline 101 % of control | dose: 40.0 mg/kg/injection, schedule: Q01DX009 (ip), vehicle: saline 109 % of control | dose: 80.0 mg/kg/injection, schedule: Q01DX009 (ip), vehicle: saline 104 % of control | dose: 120.0 mg/kg/injection, schedule: Q01DX009 (ip), vehicle: saline 91 % of control

CC1=C(C)Cc2c(OC(=O)c3ccccc3)ccc(OC(=O)c3ccccc3)c2C1
inactive: dose: 3.12 mg/kg/injection, schedule: Q01DX009 (ip), vehicle: water 101 % of control | dose: 6.25 mg/kg/injection, schedule: Q01DX009 (ip), vehicle: water 101 % of control | dose: 12.5 mg/kg/injection, schedule: Q01DX009 (ip), vehicle: water 96 % of control | dose: 25.0 mg/kg/injection, schedule: Q01DX009 (ip), vehicle: water 98 % of control and 119 % of control | dose: 50.0 mg/kg/injection, schedule: Q01DX009 (ip), vehicle: water 101 % of control | dose: 100.0 mg/kg/injection, schedule: Q01DX009 (ip), vehicle: water 90 % of control | dose: 200.0 mg/kg/injection, schedule: Q01DX009 (ip), vehicle: water 90 % of control | dose: 400.0 mg/kg/injection, schedule: Q01DX009 (ip), vehicle: water 97 % of control

C[CH2][Sn]([CH2]C)([O]S(C)(=O)=O)[O]S(C)(=O)=O
inactive: dose: 0.78 mg/kg/injection, schedule: Q01DX009 (ip), vehicle: saline 95 % of control | dose: 1.56 mg/kg/injection, schedule: Q01DX009 (ip), vehicle: saline 98 % of control | dose: 3.12 mg/kg/injection, schedule: Q01DX009 (ip), vehicle: saline 106 % of control | dose: 6.25 mg/kg/injection, schedule: Q01DX009 (ip), vehicle: saline 116 % of control | dose: 12.5 mg/kg/injection, schedule: Q01DX009 (ip), vehicle: saline 102 % of control

CCOC(=O)c1ccc(SC(Cl)(Cl)Cl)cc1
inactive: dose: 100.0 mg/kg/injection, schedule: Q01DX001 (ip), vehicle: alcohol 98 % of control | dose: 200.0 mg/kg/injection, schedule: Q01DX001 (ip), vehicle: alcohol 107 % of control | dose: 400.0 mg/kg/injection, schedule: Q01DX001 (ip), vehicle: alcohol 120 % of control

CC(C)NCc1ccccc1
inactive: [1] 95 % of control | [2] 98 % of control

Cc1ccc(NC(=O)NCCCCCCNC(=O)Nc2ccc(C)c(Cl)c2)cc1Cl
inactive: dose: 100.0 mg/kg/injection, schedule: Q04DX003 (ip), vehicle: saline with Tween-80 93 % of control | [3] 89 % of control | dose: 200.0 mg/kg/injection, schedule: Q04DX003 (ip), vehicle: saline with Tween-80 92 % of control | dose: 400.0 mg/kg/injection, schedule: Q04DX003 (ip), vehicle: saline with Tween-80 95 % of control

CCOC(=O)c1ccc(NC(=O)Oc2ccc3ccccc3c2)cc1
inactive: dose: 100.0 mg/kg/injection, schedule: Q01DX001 (ip), vehicle: saline with Tween-80 96 % of control | [4] 100 % of control and 90 % of control | [1] 99 % of control and 88 % of control | dose: 200.0 mg/kg/injection, schedule: Q01DX001 (ip), vehicle: saline with Tween-80 93 % of control and 86 % of control | [3] 92 % of control and 100 % of control | [2] 97 % of control and 91 % of control | dose: 400.0 mg/kg/injection, schedule: Q01DX001 (ip), vehicle: saline with Tween-80 93 % of control and 91 % of control | dose: 400.0 mg/kg/injection, schedule: Q01DX009 (ip), vehicle: saline with Tween-80 100 % of control and 90 % of control | dose: 400.0 mg/kg/injection, schedule: Q04DX002 (ip), vehicle: saline with Tween-80 92 % of control and 88 % of control

CC(C)(C)C(=O)Oc1ccc2ccccc2c1
inactive: dose: 75.0 mg/kg/injection, schedule: Q04DX002 (ip), vehicle: gum acacia 105 % of control | dose: 150.0 mg/kg/injection, schedule: Q04DX002 (ip), vehicle: gum acacia 92 % of control | dose: 300.0 mg/kg/injection, schedule: Q04DX002 (ip), vehicle: gum acacia 123 % of control

COC(=O)C1(C)CSCCC1=O (stereo not given)
inactive: [5] 94 % of control | [6] 94 % of control | [7] 99 % of control

CCCCCCCCCCCCCCCCCOc1ccc(I)cc1
inactive: dose: 100.0 mg/kg/injection, schedule: Q04DX003 (ip), vehicle: Klucel (hydroxypropylcellulose) (HPC) 91 % of control | dose: 200.0 mg/kg/injection, schedule: Q04DX003 (ip), vehicle: Klucel (hydroxypropylcellulose) (HPC) 91 % of control

O=C(CNC(=O)OCc1ccccc1)NCCCCCCNCCCCCCNC(=O)CNC(=O)OCc1ccccc1
inactive: dose: 1.25 mg/kg/injection, schedule: Q01DX Z (ip), vehicle: saline 93 % of control | dose: 2.5 mg/kg/injection, schedule: Q01DX Z (ip), vehicle: saline 93 % of control | dose: 5.0 mg/kg/injection, schedule: Q01DX Z (ip), vehicle: saline 94 % of control | dose: 10.0 mg/kg/injection, schedule: Q01DX Z (ip), vehicle: saline 93 % of control

[Cl][Fe]([Cl])([Cl])[Cl].c1ccc(-c2cc(-c3ccccc3)[o+]c(-c3ccccc3)c2)cc1
inactive: dose: 25.0 mg/kg/injection, schedule: Q01DX009 (ip), vehicle: saline with Tween-80 87 % of control | dose: 50.0 mg/kg/injection, schedule: Q01DX009 (ip), vehicle: saline with Tween-80 88 % of control | [4] 90 % of control

Cc1cc(=O)c(CO)n[nH]1
inactive: dose: 100.0 mg/kg/injection, schedule: Q01DX009 (ip), vehicle: saline 103 % of control | [8] 101 % of control | dose: 200.0 mg/kg/injection, schedule: Q01DX009 (ip), vehicle: saline 95 % of control | [9] 106 % of control | dose: 400.0 mg/kg/injection, schedule: Q01DX009 (ip), vehicle: saline 98 % of control | [10] 103 % of control

CCCCCCCC(=O)NN
inactive: dose: 25.0 mg/kg/injection, schedule: Q01DX009 (ip), vehicle: other 104 % of control | dose: 50.0 mg/kg/injection, schedule: Q01DX009 (ip), vehicle: carboxymethylcellulose (CMC) 89 % of control | dose: 50.0 mg/kg/injection, schedule: Q01DX009 (ip), vehicle: other 93 % of control | dose: 100.0 mg/kg/injection, schedule: Q01DX001 (ip), vehicle: carboxymethylcellulose (CMC) 117 % of control | dose: 100.0 mg/kg/injection, schedule: Q01DX009 (ip), vehicle: carboxymethylcellulose (CMC) 86 % of control | [5] 98 % of control | dose: 200.0 mg/kg/injection, schedule: Q01DX001 (ip), vehicle: carboxymethylcellulose (CMC) 97 % of control | [6] 107 % of control | dose: 400.0 mg/kg/injection, schedule: Q01DX001 (ip), vehicle: carboxymethylcellulose (CMC) 95 % of control | [7] 98 % of control

O=Cc1ccc([N+](=O)[O-])cc1Cl
inactive: dose: 75.0 mg/kg/injection, schedule: Q01DX001 (ip), vehicle: other 111 % of control | dose: 150.0 mg/kg/injection, schedule: Q01DX001 (ip), vehicle: other 94 % of control | dose: 300.0 mg/kg/injection, schedule: Q01DX001 (ip), vehicle: other 97 % of control

COc1cccc(CNC(C)(CO)CO)c1OC
inactive: dose: 50.0 mg/kg/injection, schedule: Q01DX001 (ip), vehicle: saline 98 % of control | dose: 100.0 mg/kg/injection, schedule: Q01DX001 (ip), vehicle: saline 104 % of control | dose: 200.0 mg/kg/injection, schedule: Q01DX001 (ip), vehicle: saline 102 % of control

CCC(C)(C)c1cc(Sc2cc(C(C)(C)CC)cc(C(C)(C)CC)c2O)c(O)c(C(C)(C)CC)c1
inactive: [8] 109 % of control | [9] 100 % of control | [10] 88 % of control
